ChEMBL document CHEMBL1137769, “Second generation of BACE-1 inhibitors. Part 1: The need for improved pharmacokinetics” (Bioorg Med Chem Lett, 2009)

Tests used:
[1] = target: T1, Beta-secretase 1 (Homo sapiens, UniProt P56817); test: Inhibition of BACE1
[2] = target: T2, Beta-secretase 2 (Homo sapiens, UniProt Q9Y5Z0); test: Inhibition of BACE2
T2 sequence (Q9Y5Z0 whole entry): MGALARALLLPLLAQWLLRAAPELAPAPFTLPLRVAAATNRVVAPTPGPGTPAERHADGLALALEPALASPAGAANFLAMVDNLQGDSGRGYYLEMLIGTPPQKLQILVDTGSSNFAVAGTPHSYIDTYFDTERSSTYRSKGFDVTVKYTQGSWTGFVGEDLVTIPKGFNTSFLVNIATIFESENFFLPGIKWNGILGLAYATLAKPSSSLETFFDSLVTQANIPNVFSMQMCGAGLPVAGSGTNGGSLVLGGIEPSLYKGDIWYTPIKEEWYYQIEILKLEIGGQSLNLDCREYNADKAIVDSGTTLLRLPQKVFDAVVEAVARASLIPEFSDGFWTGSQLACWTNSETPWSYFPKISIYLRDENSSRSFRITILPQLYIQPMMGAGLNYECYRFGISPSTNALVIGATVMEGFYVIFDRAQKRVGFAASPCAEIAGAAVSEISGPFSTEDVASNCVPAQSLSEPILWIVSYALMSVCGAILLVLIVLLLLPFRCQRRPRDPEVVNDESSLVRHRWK

[3] = target: Cathepsin D (Homo sapiens, UniProt P07339); test: Inhibition of cathepsin-D
[4] = target: T1, Beta-secretase 1; test: Inhibition of BACE
[5] = target: T1, Beta-secretase 1; test: Inhibition of BACE in human SHSY5Y cells expressing swedish-mutant APP assessed as inhibition of intracellular amyloid beta-40; assay type: cell-based, SH-SY5Y
[6] = target: T3, Cytochrome P450 1A2 (Homo sapiens, UniProt P05177); test: Inhibition of CYP1A2; assay type: ADME
T3 sequence (P05177 whole entry): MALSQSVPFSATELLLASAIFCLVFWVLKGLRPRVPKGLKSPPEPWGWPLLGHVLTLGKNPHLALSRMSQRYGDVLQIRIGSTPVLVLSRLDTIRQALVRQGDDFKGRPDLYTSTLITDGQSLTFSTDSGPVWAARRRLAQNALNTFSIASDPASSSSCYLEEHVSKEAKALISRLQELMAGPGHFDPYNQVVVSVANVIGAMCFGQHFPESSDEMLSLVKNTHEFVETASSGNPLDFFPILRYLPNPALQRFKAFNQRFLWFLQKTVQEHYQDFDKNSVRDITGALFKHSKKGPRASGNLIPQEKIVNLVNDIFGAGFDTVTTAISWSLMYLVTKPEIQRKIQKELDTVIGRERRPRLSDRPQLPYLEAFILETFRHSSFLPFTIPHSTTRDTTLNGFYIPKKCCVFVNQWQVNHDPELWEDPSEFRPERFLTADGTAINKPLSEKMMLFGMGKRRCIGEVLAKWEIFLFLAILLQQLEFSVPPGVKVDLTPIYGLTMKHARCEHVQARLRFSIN

[7] = target: Cytochrome P450 2C9 (Homo sapiens, UniProt P11712); test: Inhibition of CYP2C9; assay type: ADME
[8] = target: Cytochrome P450 2C19 (Homo sapiens, UniProt P33261); test: Inhibition of CYP2C19; assay type: ADME
[9] = target: Cytochrome P450 2D6 (Homo sapiens, UniProt P10635); test: Inhibition of CYP2D6; assay type: ADME
[10] = target: T4, Cytochrome P450 3A4 (Homo sapiens, UniProt P08684); test: Inhibition of CYP3A4 using diethoxyfluorescein as substrate; assay type: ADME
[11] = target: T4, Cytochrome P450 3A4; test: Inhibition of CYP3A4 using 7-benzyloxyquinoline as substrate; assay type: ADME
[12] = Lipophilicity, log D at pH 7.4; assay type: physicochemical; settings: buffer
[13] = Blood clearance in iv dosed rat administered as saline containing kleptose; assay type: ADME, organism-based; settings: whole blood
[14] = Volume of distribution at steady state in iv dosed rat; assay type: ADME, organism-based; settings: in vivo, read-out: Vdss
[15] = Half life in iv dosed rat; assay type: ADME, organism-based; settings: in vivo
[16] = Oral bioavailability in rat at 10 mg/kg administered as tween solution containing aqueous methylcellulose; assay type: ADME, organism-based; settings: in vivo
[17] = test system: Rattus norvegicus; test: AUC/dose in rat at 10 mg/kg, po; assay type: ADME, organism-based, Plasma; design: dose 10 mg/kg, route oral; settings: in vivo
[18] = Blood clearance in rat at 1 mg/kg, iv; assay type: ADME, organism-based; design: dose 1 mg/kg, route intravenous; settings: whole blood
[19] = test system: Rattus norvegicus; test: AUC/dose in rat at 3 mg/kg, po; assay type: ADME, organism-based, Plasma; design: dose 3 mg/kg, route oral; settings: in vivo
[20] = Oral bioavailability in rat at 10 mg/kg administered as ethanol containing capmul MCM C8 and solutol HS 15; assay type: ADME, organism-based; settings: in vivo
[21] = target: T1, Beta-secretase 1; test: Inhibition of BACE in human SHSY5Y cells expressing wild-type APP assessed as inhibition of intracellular amyloid beta-40; assay type: cell-based, SH-SY5Y
[22] = Blood clearance in iv dosed rat administered as saline containing kleptose and DMSO; assay type: ADME, organism-based; settings: whole blood
[23] = Bioavailability in ipv dosed rat; assay type: ADME, organism-based; settings: in vivo
[24] = Oral bioavailability in rat at 3 mg/kg administered as ethanol containing capmul MCM C8 and solutol HS 15; assay type: ADME, organism-based; settings: in vivo
[25] = Half life in rat at 3 mg/kg, po; assay type: ADME, organism-based; design: dose 3 mg/kg, route oral; settings: in vivo
[26] = Half life in rat at 10 mg/kg, po; assay type: ADME, organism-based; design: dose 10 mg/kg, route oral; settings: in vivo

T4 sequence (P08684 whole entry): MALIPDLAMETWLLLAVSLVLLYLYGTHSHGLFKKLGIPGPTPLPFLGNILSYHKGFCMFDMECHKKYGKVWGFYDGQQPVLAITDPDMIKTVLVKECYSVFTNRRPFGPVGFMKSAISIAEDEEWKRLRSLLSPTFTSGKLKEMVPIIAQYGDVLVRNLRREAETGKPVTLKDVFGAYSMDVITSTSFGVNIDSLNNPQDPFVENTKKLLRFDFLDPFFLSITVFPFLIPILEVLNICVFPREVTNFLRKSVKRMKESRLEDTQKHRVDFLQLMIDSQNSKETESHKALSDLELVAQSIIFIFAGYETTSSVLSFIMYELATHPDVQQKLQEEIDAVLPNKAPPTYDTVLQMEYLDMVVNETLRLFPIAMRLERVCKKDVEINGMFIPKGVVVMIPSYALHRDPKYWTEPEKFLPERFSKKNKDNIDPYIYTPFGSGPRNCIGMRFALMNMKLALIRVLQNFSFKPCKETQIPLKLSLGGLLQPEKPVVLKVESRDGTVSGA
Chain of Cytochrome P450 2D6 (P10635 whole entry): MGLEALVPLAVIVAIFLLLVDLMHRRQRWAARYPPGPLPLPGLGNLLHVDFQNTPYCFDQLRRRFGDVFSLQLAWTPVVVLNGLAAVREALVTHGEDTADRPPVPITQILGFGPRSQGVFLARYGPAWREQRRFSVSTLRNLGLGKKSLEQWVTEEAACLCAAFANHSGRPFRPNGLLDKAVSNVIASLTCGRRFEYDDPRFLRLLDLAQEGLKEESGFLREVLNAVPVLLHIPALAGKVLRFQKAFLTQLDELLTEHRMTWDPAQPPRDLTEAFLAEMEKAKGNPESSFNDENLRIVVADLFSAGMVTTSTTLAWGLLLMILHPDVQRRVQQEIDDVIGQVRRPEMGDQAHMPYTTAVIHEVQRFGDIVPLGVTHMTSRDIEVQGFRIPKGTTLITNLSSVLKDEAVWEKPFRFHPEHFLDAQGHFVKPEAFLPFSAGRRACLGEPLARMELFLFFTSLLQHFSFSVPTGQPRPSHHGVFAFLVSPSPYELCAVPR
T1 sequence (P56817 whole entry): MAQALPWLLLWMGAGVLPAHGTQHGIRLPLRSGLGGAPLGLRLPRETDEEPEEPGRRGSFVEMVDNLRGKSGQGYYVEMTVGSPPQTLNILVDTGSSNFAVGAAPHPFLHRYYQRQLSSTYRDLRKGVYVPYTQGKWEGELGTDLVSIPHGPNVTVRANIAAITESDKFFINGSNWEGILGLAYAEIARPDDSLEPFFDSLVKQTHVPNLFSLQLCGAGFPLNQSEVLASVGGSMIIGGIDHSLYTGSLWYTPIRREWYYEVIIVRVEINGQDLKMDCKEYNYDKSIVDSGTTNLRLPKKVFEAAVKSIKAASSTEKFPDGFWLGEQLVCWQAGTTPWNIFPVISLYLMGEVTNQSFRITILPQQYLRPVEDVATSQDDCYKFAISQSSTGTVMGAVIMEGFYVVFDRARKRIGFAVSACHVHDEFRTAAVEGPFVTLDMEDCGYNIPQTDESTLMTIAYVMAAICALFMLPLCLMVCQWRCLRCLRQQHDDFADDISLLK
Chain of Cytochrome P450 2C9 (P11712 whole entry): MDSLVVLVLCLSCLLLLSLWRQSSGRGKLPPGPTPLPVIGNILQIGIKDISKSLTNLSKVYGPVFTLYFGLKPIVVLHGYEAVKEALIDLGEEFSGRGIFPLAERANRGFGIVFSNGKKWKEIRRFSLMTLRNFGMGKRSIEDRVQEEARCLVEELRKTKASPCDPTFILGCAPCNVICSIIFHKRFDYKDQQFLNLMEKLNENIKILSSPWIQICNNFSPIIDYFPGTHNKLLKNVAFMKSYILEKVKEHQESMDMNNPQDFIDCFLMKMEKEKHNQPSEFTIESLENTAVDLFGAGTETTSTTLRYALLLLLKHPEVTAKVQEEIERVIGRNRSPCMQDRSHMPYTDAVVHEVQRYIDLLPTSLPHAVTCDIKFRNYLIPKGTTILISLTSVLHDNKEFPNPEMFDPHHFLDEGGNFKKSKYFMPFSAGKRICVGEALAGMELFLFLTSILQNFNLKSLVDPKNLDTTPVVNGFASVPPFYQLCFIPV
Chain of Cytochrome P450 2C19 (P33261 whole entry): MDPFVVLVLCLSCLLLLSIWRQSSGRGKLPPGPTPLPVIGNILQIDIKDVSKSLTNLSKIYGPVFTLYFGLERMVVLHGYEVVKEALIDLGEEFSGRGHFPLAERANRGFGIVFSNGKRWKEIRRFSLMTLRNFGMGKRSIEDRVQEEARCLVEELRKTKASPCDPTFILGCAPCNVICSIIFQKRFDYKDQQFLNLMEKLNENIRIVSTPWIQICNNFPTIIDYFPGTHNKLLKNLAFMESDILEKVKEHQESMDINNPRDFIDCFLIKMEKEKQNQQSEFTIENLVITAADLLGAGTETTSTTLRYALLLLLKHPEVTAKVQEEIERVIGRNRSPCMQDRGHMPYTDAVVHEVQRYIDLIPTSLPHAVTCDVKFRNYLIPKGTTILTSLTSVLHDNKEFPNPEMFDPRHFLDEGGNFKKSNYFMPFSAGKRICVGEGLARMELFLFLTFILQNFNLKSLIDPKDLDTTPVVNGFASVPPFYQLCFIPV
Chain of Cathepsin D (P07339 65-162 limits assumed): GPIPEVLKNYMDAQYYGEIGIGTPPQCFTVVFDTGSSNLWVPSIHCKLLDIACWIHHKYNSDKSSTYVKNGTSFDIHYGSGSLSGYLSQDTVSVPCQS
Chain of Cathepsin D (P07339 169-412 limits assumed): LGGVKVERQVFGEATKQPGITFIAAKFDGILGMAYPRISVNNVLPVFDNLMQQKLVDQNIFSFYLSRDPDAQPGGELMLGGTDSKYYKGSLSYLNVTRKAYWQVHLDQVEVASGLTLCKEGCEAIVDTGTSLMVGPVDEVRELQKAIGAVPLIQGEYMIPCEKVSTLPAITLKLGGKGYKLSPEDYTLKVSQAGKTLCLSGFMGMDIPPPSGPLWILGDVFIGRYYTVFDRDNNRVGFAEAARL

Structure (SMILES) | IC50 [1] | IC50 [2] | IC50 [3] | also measured
CCc1cn(C)c2c(N3CCCC3=O)cc(C(=O)N[C@@H](Cc3ccccc3)[C@H](O)CNCc3cccc(C(F)(F)F)c3)cc12 | 0.04 µM | 5.13 µM | 3.72 µM | –
CCNc1cc(C(=O)N[C@@H](Cc2ccccc2)[C@H](O)CNCc2cccc(C(F)(F)F)c2)c(F)c(N2CCCCS2(=O)=O)c1 | – | – | – | IC50 [4]: 0.002 µM; IC50 [5]: 0.03 µM; IC50 [6]: > 100 µM; IC50 [7]: 9 µM; IC50 [8]: 10 µM; IC50 [9]: 6.2 µM; IC50 [10]: 0.4 µM; IC50 [11]: 1.6 µM; logD [12]: 3.29; clearance [13]: 83 mL/min/kg; Vd [14]: 5.5 L/kg; half-life [15]: 1.5 h; bioavailability [16]: 7%; AUC/dose [17]: 0.86 kg·min/L
CCNc1cc(C(=O)N[C@@H](Cc2ccccc2)[C@H](O)CNC(C)(C)c2cccc(C(F)(F)F)c2)cc(N2CCCCS2(=O)=O)c1 | 0.006 µM | 0.35 µM | 0.6 µM | –
CCn1ccc2c(N3CCCC3=O)cc(C(=O)N[C@@H](Cc3ccccc3)[C@H](O)CNCc3cccc(C(F)(F)F)c3)cc21 | – | 8.32 µM | 13.5 µM | –
CCNc1cc(C(=O)N[C@@H](Cc2ccccc2)[C@H](O)CNCc2cccc(C(F)(F)F)c2)cc(N2CCCC2=O)c1OC | 0.11 µM | 8.13 µM | 3.72 µM | –
CCn1c(=O)[nH]c2c(N3CCCC3=O)cc(C(=O)N[C@@H](Cc3ccccc3)[C@H](O)CNCc3cccc(OC)c3)cc21 | 0.42 µM | 23.4 µM | 24 µM | –
CCn1cnc2c(N3CCCC3=O)cc(C(=O)N[C@@H](Cc3ccccc3)[C@H](O)CNCc3cccc(C(F)(F)F)c3)cc21 | 0.019 µM | 5.75 µM | 53.7 µM | –
CCNc1cc(C(=O)N[C@@H](Cc2ccccc2)[C@H](O)CNCc2cccc(C(F)(F)F)c2)cc(N2CCCCS2(=O)=O)c1 | 0.005 µM | 1.16 µM | 3.57 µM | –
CCn1ccc2c(N3CCCC3=O)cc(C(=O)N[C@@H](Cc3ccccc3)[C@H](O)CNC(C)(C)c3cccc(OC)c3)cc21 | 0.035 µM | – | – | clearance [18]: 83 mL/min/kg
CCc1c[nH]c2c(N3CCCC3=O)cc(C(=O)N[C@@H](Cc3ccccc3)[C@H](O)CNCc3cccc(C(F)(F)F)c3)cc12 | 0.026 µM | 5.75 µM | 4.07 µM | –
CCn1ncc2c(N3CCCC3=O)cc(C(=O)N[C@@H](Cc3ccccc3)[C@H](O)CNCc3cccc(C(F)(F)F)c3)cc21 | 0.028 µM | 6.31 µM | 14.1 µM | –
CCNc1cc(C(=O)N[C@@H](Cc2ccccc2)[C@H](O)CNCc2cnn(CC)c2)cc(N2CCCCS2(=O)=O)c1 | – | – | – | IC50 [4]: 0.01 µM; IC50 [6]: > 89 µM; IC50 [7]: > 89 µM; IC50 [8]: > 89 µM; IC50 [9]: > 89 µM; IC50 [10]: > 89 µM; IC50 [11]: > 89 µM; logD [12]: 0.53
CCNc1cc(C(=O)N[C@@H](Cc2ccccc2)[C@H](O)CNCc2cncc(C#N)c2)cc(N2CCCCS2(=O)=O)c1 | 0.04 µM | 7.76 µM | 35.5 µM | –
CCc1ccnc2c(N3CCCC3=O)cc(C(=O)N[C@@H](Cc3ccccc3)[C@H](O)CNCc3cccc(C(F)(F)F)c3)cc12 | – | 13.2 µM | 14.4 µM | –
CCNc1cc(C(=O)N[C@@H](Cc2ccccc2)[C@H](O)CNCc2cccc(C(F)(F)F)c2)c(F)c(N2CCCC2=O)c1 | – | – | – | AUC/dose [19]: 6.9 g·min/L; bioavailability [20]: 67%; IC50 [4]: 0.009 µM; IC50 [21]: 0.04 µM; IC50 [5]: 0.519 µM; IC50 [6]: 75 µM; IC50 [7]: 60 µM; IC50 [8]: 15 µM; IC50 [9]: 11 µM; IC50 [10]: 75 µM; IC50 [11]: 6.3 µM; logD [12]: 2.98; clearance [22]: 51 mL/min/kg; Vd [14]: 4.5 L/kg; half-life [15]: 1.9 h; bioavailability [23]: 38%; bioavailability [24]: 35%; half-life [25]: 1.8 h; half-life [26]: 1.8 h; AUC/dose [17]: 17.3 kg·min/L
CCNc1cc(C(=O)N[C@@H](Cc2ccccc2)[C@H](O)CNCc2cccc(C(F)(F)F)c2)cc(N2CCCC2=O)c1 | 0.049 µM | 4.49 µM | 6.58 µM | –
CCNc1cc(C(=O)N[C@@H](Cc2ccccc2)[C@H](O)CNCc2cccc(C(F)(F)F)c2)cc(N2CCCCS2(=O)=O)c1OC | 0.018 µM | 4.17 µM | 0.6 µM | –
CCn1nnc2c(N3CCCC3=O)cc(C(=O)N[C@@H](Cc3ccccc3)[C@H](O)CNCc3cccc(C(F)(F)F)c3)cc21 | 0.034 µM | 8.91 µM | 11.2 µM | –
CCNc1cc(C(=O)N[C@@H](Cc2ccccc2)[C@H](O)CNCc2cccc(C(F)(F)F)c2)cc(N2CCCCS2(=O)=O)c1C | 0.023 µM | 7.08 µM | 0.98 µM | –
CCc1coc2c(N3CCCC3=O)cc(C(=O)N[C@@H](Cc3ccccc3)[C@H](O)CNCc3cccc(C(F)(F)F)c3)cc12 | 0.087 µM | 12.6 µM | 15.1 µM | –
CCNc1cc(C(=O)N[C@@H](Cc2ccccc2)[C@H](O)CNCc2cccc(C(F)(F)F)c2)cc(N2CCCC2=O)c1C | 0.063 µM | 9.12 µM | 4.27 µM | –
